Legend:
[1] = test system: Kyn levels in BxPC3 cells (kynurenine generated by IDO1); assay: Cellular Kyn assay (automated Kyn screening assay); type: cell-based; settings: for IC50: Homo sapiens, BXPC-3, 48 h, IFN-γ, L-Trp and compounds 48 h, mean ± SD, read-out: IC50 (Kyn assay), reduction of kynurenine levels
recombinant human IDO1 = target: T1, recombinant human IDO1 (Homo sapiens, UniProt P14902); assay: IDO1 enzymatic assay in vitro; type: biochemical; settings: for inhibition at 14 µM / IDO1 activity IC50 [µM] (in vitro assay) / IC50: pre-incubation 37 °C 45 min; for inhibition at 14 µM: mean ± SD; for IDO1 activity IC50 [µM] (in vitro assay) / IC50: determined if inhibition at 14 µM higher than 50%; for in vitro IDO1 inhibition (in words): up to 14 µM, incubated with IDO1 for 45 min
T1 construct: The GST-tag of IDO1 was removed to obtain untagged full-length IDO1l using PreScission protease; GST (N, cleaved yes); made in house; own inference

[2] = target: IDO1 protein levels in BxPC3 cells (Homo sapiens, UniProt P14902); assay: IDO1 immunoblotting (degradation); type: cell-based; set-up: endogenous in cells; host or cells: BxPC3 (DSMZ), IFN-γ stimulated; settings: for Max. degradation (%): 24 h incubation, mean ± SD; for Dmax at 0.1 µM: BXPC-3, @100 nM
Chain of IDO1 protein levels in BxPC3 cells (P14902 whole entry): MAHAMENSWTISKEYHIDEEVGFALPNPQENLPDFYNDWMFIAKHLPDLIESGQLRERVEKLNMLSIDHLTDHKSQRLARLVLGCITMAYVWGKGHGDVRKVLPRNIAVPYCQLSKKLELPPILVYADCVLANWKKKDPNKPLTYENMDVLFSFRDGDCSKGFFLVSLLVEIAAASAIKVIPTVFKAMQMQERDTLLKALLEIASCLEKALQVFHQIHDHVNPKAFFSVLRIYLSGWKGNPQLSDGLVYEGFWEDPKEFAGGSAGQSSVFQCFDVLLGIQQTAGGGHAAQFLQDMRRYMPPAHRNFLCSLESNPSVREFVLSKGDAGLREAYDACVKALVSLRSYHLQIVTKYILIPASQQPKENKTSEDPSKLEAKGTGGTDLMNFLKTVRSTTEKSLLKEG

T1 sequence (P14902 whole entry): as above

| SMILES | IC50 [1] [nM] | inhibition at 14 µM (recombinant human IDO1) [%] | Max. degradation (%) ([2]; 10 nM) | Max. degradation (%) ([2]; 100 nM) | Degradation Efficiency (%) ([2]; 100 nM, BxPC3 cells, heatmap Fig. 3d) | IC50 (recombinant human IDO1) [µM] | in vitro IDO1 inhibition (in words) (recombinant human IDO1) | Dmax at 0.1 µM ([2]; BxPC3 cells) [%] | fold increase in potency compared to iDeg-2 in Kyn assay [1] | IDO1 activity IC50 [µM] (in vitro assay) (recombinant human IDO1) |
| --- | --- | --- | --- | --- | --- | --- | --- | --- | --- | --- |
| C#Cc1ccc(NC(=O)OC[C@]23CN(S(=O)(=O)c4ccc(C(C)(C)C)cc4)C[C@H]2C[C@H]2C[C@@H]3C2(C)C)cc1 [43 (iDeg-3), ((3aS,4R,6R,7aS)-2-((4-(tert-butyl)phenyl)sulfonyl)-5,5-dimethyloctahydro-3aH-4,6-methanoisoindol-3a-yl)methyl (4-ethynylphenyl)carbamate] | 46 ± 21 | < 25 | 29 ± 16 (5) % | 62 ± 10 (5) % | 62 |  |  |  | three‐fold | – (Inactive: >75% Kyn level observed up to a concentration of 14 µM and no IC50 value obtained) |
| COc1cc(C(C)(C)C)ccc1S(=O)(=O)N1C[C@H]2C[C@H]3C[C@H](C3(C)C)[C@@]2(COC(=O)Nc2ccc(I)cc2)C1 [compound 82, ((3aS,4R,6R,7aS)-2-((4-(tert-butyl)-2-methoxyphenyl)sulfonyl)-5,5-dimethyloctahydro-3aH-4,6-methanoisoindol-3a-yl)methyl (4-iodophenyl)carbamate] | 46 ± 15 | < 25 | 14 ± 15 (5) % | 59 ± 16 (5) % |  |  |  |  |  | – (Inactive: >75% Kyn level observed up to a concentration of 14 µM and no IC50 value obtained) |
| CC(C)(C)c1ccc(S(=O)(=O)N2C[C@H]3C[C@H]4C[C@H](C4(C)C)[C@@]3(COC(=O)Nc3ccc(I)cc3)C2)c(Br)c1 [compound 83, ((3aS,4R,6R,7aS)-2-((2-bromo-4-(tert-butyl)phenyl)sulfonyl)-5,5-dimethyloctahydro-3aH-4,6-methanoisoindol-3a-yl)methyl (4-iodophenyl)carbamate] | 35 ± 6 | < 25 | 24 ± 15 (3) % | 56 ± 4 (3) % |  |  |  |  |  | – (Inactive: >75% Kyn level observed up to a concentration of 14 µM and no IC50 value obtained) |
| CC(C)(C)c1ccc(S(=O)(=O)N2C[C@H]3C[C@H]4C[C@H](C4(C)C)[C@@]3(COC(=O)Nc3ccc(I)cc3)C2)c(I)c1 [compound 84, ((3aS,4R,6R,7aS)-2-((4-(tert-butyl)-2-iodophenyl)sulfonyl)-5,5-dimethyloctahydro-3aH-4,6-methanoisoindol-3a-yl)methyl (4-iodophenyl)carbamate] | 42 ± 15 | 16 ± 4 | inactive | 55 ± 5 (3) % |  |  |  |  |  | – (Inactive: >75% Kyn level observed up to a concentration of 14 µM and no IC50 value obtained) |
| CC(C)(CC(=O)O)c1ccc(S(=O)(=O)N2C[C@H]3C[C@H]4C[C@H](C4(C)C)[C@@]3(COC(=O)Nc3ccc(I)cc3)C2)cc1 [compound 91, 3-(4-(((3aS,4R,6R,7aS)-3a-((((4-iodophenyl)carbamoyl)oxy)methyl)-5,5-dimethyloctahydro-2H-4,6-methanoisoindol-2-yl)sulfonyl)phenyl)-3-methylbutanoic acid] | 32 ± 7 | 59 ± 2 | 27 ± 5 (3) % | 36 ± 2 (3) % |  | 1.9 ± 0.5 |  | 36 to 54 |  |  |
| COc1cc(C(C)(C)C(=O)O)ccc1S(=O)(=O)N1C[C@H]2C[C@H]3C[C@H](C3(C)C)[C@@]2(COC(=O)Nc2ccc(I)cc2)C1 [compound 95, 2-(4-(((3aS,4R,6R,7aS)-3a-((((4-iodophenyl)carbamoyl)oxy)methyl)-5,5-dimethyloctahydro-2H-4,6-methanoisoindol-2-yl)sulfonyl)-3-methoxyphenyl)-2-methylpropanoic acid] | 80 ± 22 | 57 ± 3 | Inactive (5) | Inactive (5) |  | 0.67 ± 0.1 |  |  |  |  |

The next molecules have a lower IC50 [1] than those just listed; values first:

| IC50 [1] [nM] | inhibition at 14 µM (recombinant human IDO1) [%] | Max. degradation (%) ([2]; 10 nM) | Max. degradation (%) ([2]; 100 nM) | Degradation Efficiency (%) ([2]; 100 nM, BxPC3 cells, heatmap Fig. 3d) | IC50 (recombinant human IDO1) [µM] | in vitro IDO1 inhibition (in words) (recombinant human IDO1) | Dmax at 0.1 µM ([2]; BxPC3 cells) [%] | SMILES | fold increase in potency compared to iDeg-2 in Kyn assay [1] | IDO1 activity IC50 [µM] (in vitro assay) (recombinant human IDO1) |
| --- | --- | --- | --- | --- | --- | --- | --- | --- | --- | --- |
| 25 ± 5 | 25 ± 5 | 31 ± 6 (3) % | 65 ± 10 (14) % |  | > 14 | weak inhibitors |  | Cc1cc(C(C)(C)C)ccc1S(=O)(=O)N1C[C@H]2C[C@H]3C[C@H](C3(C)C)[C@@]2(COC(=O)Nc2ccc(I)cc2)C1 [79 (iDeg-4), ((3aS,4R,6R,7aS)-2-((4-(tert-butyl)-2-methylphenyl)sulfonyl)-5,5-dimethyloctahydro-3aH-4,6-methanoisoindol-3a-yl)methyl (4-iodophenyl)carbamate] |  |  |
| 30 ± 3 | 66 ± 8 | 23 ± 22 (5) % | 46 ± 21 (5) % |  | 0.82 ± 0.14 |  | 36 to 54 | CC(C)(C(=O)O)c1ccc(S(=O)(=O)N2C[C@H]3C[C@H]4C[C@H](C4(C)C)[C@@]3(COC(=O)Nc3ccc(I)cc3)C2)cc1 [92 (iDeg-5), 2-(4-(((3aS,4R,6R,7aS)-3a-((((4-iodophenyl)carbamoyl)oxy)methyl)-5,5-dimethyloctahydro-2H-4,6-methanoisoindol-2-yl)sulfonyl)phenyl)-2-methylpropanoic acid] | 4 fold |  |
| 13 ± 3 | 35 ± 8 | 25 ± 10 (3) % | 56 ± 4 (3) % |  | > 14 | weak inhibitors |  | CCc1cc(C(C)(C)C)ccc1S(=O)(=O)N1C[C@H]2C[C@H]3C[C@H](C3(C)C)[C@@]2(COC(=O)Nc2ccc(I)cc2)C1 [compound 80, ((3aS,4R,6R,7aS)-2-((4-(tert-butyl)-2-ethylphenyl)sulfonyl)-5,5-dimethyloctahydro-3aH-4,6-methanoisoindol-3a-yl)methyl (4-iodophenyl)carbamate] |  |  |
| 19 ± 6 | 39 ± 1 | 31 ± 18 (3) % | 55 ± 4 (3) % |  | > 14 | weak inhibitors |  | CC(C)(C)c1ccc(S(=O)(=O)N2C[C@H]3C[C@H]4C[C@H](C4(C)C)[C@@]3(COC(=O)Nc3ccc(I)cc3)C2)c(C2CC2)c1 [compound 81, ((3aS,4R,6R,7aS)-2-((4-(tert-butyl)-2-cyclopropylphenyl)sulfonyl)-5,5-dimethyloctahydro-3aH-4,6-methanoisoindol-3a-yl)methyl (4-iodophenyl)carbamate] |  |  |
| 14 ± 3 | 62 ± 1 | 15 ± 2 (3) % | 20 ± 12 (3) % |  | 0.19 ± 0.1 |  |  | CC(C)(C(=O)O)c1ccc(S(=O)(=O)N2C[C@H]3C[C@H]4C[C@H](C4(C)C)[C@@]3(COC(=O)Nc3ccc(I)cc3)C2)c(Cl)c1 [compound 96, 2-(3-chloro-4-(((3aS,4R,6R,7aS)-3a-((((4-iodophenyl)carbamoyl)oxy)methyl)-5,5-dimethyloctahydro-2H-4,6-methanoisoindol-2-yl)sulfonyl)phenyl)-2-methylpropanoic acid] |  |  |
| 5 ± 1 | 65 ± 4 | 11 ± 24 (3) % | 18 ± 19 (3) % |  | 0.11 ± 0.02 |  |  | Cc1cc(C(C)(C)C(=O)O)ccc1S(=O)(=O)N1C[C@H]2C[C@H]3C[C@H](C3(C)C)[C@@]2(COC(=O)Nc2ccc(I)cc2)C1 [compound 97, 2-(4-(((3aS,4R,6R,7aS)-3a-((((4-iodophenyl)carbamoyl)oxy)methyl)-5,5-dimethyloctahydro-2H-4,6-methanoisoindol-2-yl)sulfonyl)-3-methylphenyl)-2-methylpropanoic acid] |  |  |
| 10 ± 4 | 39 ± 7 | 61 ± 2 (3) % | 71 ± 11 (3) % |  | > 14 |  |  | C#Cc1ccc(NC(=O)OC[C@]23CN(S(=O)(=O)c4ccc(C(C)(C)C)cc4C4CC4)C[C@H]2C[C@H]2C[C@@H]3C2(C)C)cc1 [compound 100, ((3aS,4R,6R,7aS)-2-((4-(tert-butyl)-2-cyclopropylphenyl)sulfonyl)-5,5-dimethyloctahydro-3aH-4,6-methanoisoindol-3a-yl)methyl (4-ethynylphenyl)carbamate] |  |  |

Reference: paper PMC12811658, “Design, Synthesis, and Structural Evolution of Pseudo‐Natural Product IDO1 Inhibitors and Degraders” (Angewandte Chemie (International Ed. in English), 2025)
